# The source made the active and inactive calls. No rule for the calls is given here.
# Target: Nuclear receptor coactivator 1 (Homo sapiens) (UniProt Q15788)
# Experiment: inhibition of NCOA1 transcriptional coactivation in cells – cell-based, luciferase reporter, luminescence, dose response (AID 602235);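 also: cells transfected with pGL4.31 reporter plus pBIND-SRC1 vector; potency is for inhibitors that lower SRC1 reporter luminescence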
# Conditions: cell-based SRC1 luciferase reporter
# Sequence of Nuclear receptor coactivator 1 (Homo sapiens) (Q15788 whole entry, looked up): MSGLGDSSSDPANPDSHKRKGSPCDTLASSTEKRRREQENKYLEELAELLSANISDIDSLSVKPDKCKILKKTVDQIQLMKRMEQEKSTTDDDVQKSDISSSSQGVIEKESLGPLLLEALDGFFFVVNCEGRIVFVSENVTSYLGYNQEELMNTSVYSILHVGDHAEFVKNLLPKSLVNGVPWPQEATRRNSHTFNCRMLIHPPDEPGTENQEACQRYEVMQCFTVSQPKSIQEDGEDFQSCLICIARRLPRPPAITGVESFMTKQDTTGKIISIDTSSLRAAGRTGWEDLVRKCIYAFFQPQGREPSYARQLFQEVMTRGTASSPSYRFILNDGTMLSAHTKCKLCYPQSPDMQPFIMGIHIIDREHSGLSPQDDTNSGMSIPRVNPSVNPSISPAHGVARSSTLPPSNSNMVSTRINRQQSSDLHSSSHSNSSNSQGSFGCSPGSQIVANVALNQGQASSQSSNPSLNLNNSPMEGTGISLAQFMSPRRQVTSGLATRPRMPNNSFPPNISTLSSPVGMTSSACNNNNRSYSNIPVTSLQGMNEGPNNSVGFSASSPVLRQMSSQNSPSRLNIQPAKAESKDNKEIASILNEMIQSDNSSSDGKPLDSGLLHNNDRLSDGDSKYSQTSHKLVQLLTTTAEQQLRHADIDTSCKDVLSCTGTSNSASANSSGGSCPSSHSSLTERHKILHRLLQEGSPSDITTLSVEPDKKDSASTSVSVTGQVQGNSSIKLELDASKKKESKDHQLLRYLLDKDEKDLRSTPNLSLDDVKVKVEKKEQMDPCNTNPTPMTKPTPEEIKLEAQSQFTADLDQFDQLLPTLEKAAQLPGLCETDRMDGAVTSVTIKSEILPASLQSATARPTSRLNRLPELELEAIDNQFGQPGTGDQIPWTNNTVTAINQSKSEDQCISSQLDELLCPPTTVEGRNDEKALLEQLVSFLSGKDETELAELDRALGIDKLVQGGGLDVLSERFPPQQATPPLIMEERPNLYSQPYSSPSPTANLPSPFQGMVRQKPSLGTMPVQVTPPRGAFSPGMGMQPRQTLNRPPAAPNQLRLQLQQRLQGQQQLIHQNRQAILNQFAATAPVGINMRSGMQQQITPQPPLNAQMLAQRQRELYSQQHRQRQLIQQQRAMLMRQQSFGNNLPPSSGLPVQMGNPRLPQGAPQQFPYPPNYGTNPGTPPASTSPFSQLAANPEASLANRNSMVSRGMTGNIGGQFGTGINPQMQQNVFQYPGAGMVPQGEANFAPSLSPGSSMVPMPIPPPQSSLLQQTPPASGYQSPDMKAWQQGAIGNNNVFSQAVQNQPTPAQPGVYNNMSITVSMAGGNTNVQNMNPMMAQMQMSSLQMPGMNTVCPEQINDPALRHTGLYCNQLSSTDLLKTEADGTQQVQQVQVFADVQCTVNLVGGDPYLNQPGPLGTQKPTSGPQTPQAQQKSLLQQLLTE
row,Compound,IC50
1,CC(C)(C)OC(=O)NCC(=O)Oc1cc2oc(=O)cc(-c3ccccc3)c2cc1Cl,inactive
2,COc1cc(C(=O)NC(=S)NNC(=O)c2cnccn2)cc(OC)c1OC,inactive
3,COc1cccc(CNc2ncnc3ccc(-c4c(C)noc4C)cc23)c1,> 35.9 µM (inactive)
4,O=C1c2cccc(OCc3ccc(F)cc3)c2CCN1Cc1ccccc1,> 35.9 µM (inactive)
5,O=C(Nc1cccc(C(F)(F)F)c1)Nc1nnc([C@@H]2C[C@H](O)[C@@H](CO)O2)s1,9.55 µM
6,O=C(N/N=C/c1coc2ccc(Cl)cc2c1=O)c1ccc(O)cc1,> 35.9 µM (inactive)
7,Cc1ccc(NC(=O)NC2CC(=O)N(c3ccc4c(c3)OCCO4)C2)cc1C (stereo not given),6 µM
8,CC1CCN(C(=O)c2scc3c2OCCO3)CC1,inactive
9,CCCCC(=O)OCC(=O)C1(O)Cc2c(O)c3c(c(O)c2C(OC2CC(NC(=O)C(F)(F)F)C(O)C(C)O2)C1)C(=O)c1c(OC)cccc1C3=O (stereo not given),> 35.9 µM (inactive)
10,COc1ccc(-c2cnc(N)nc2-c2ccc(OC)cc2O)cc1,inactive
11,CC(C)n1c(SCC(=O)Nc2nc3c(s2)CCCC3)nc2c1c(=O)n(C)c(=O)n2C,inactive
12,Cc1noc(/C=C/c2ccco2)c1S(=O)(=O)N1CCC(C(=O)Nc2ccc(Cl)cn2)CC1,> 35.9 µM (inactive)
13,Cc1ccc2nc(C(F)(F)F)c(C#N)c(N)c2c1,inactive
14,COc1ccc(-c2cc(=O)oc3c(C)c(O)c(CN(C)C)cc23)cc1,inactive
15,COc1cccc(C2=CC(=O)CC(C)(C)C2)c1,inactive
16,O=C(NC1CCCCC1)C(c1cccnc1)N(C(=O)CCl)c1cccc(Cl)c1 (stereo not given),6.91 µM
17,CCOc1cccc(/C=N/NC(=O)c2cc(C3CC3)[nH]n2)c1O,8.38 µM
18,C=CCn1c(O)c(C(C)=NCc2cc(OC)cc(OC)c2)c(=O)[nH]c1=O,inactive
19,CCCCN(CCCC)c1ncnc2nc[nH]c12,inactive
20,COc1ccc(CNc2ncc(-c3ccc(F)cc3)n2C)c2ccccc12,inactive
21,Nc1ccc(-c2cc3ccccc3oc2=O)cc1,8.96 µM
22,O=C(OC(c1ccccc1)c1nccc2ccccc12)c1ccccc1 (stereo not given),> 11.9 µM (inactive)
23,NNC(=O)c1cc2ccccc2cc1O,7.02 µM
24,COc1cc2c3c([nH]c2cc1F)C(=O)NCC3,9.54 µM
25,COc1ccccc1CNC(=O)C(=O)NCCC1CCCCN1S(=O)(=O)c1ccc(C)cc1 (stereo not given),inactive
26,c1ccc(-c2csc3ncnc(NCCN4CCOCC4)c23)cc1,inactive
27,O=C(CCl)N1N=C(c2ccco2)CC1c1ccco1 (stereo not given),5.7 µM

row,Compound,IC50
1,Cc1c(CC(=O)NCCCC(=O)O)c(=O)oc2cc3c(cc12)CCC(C)(C)O3,inactive
2,CCN(C(=O)c1cccc(S(=O)(=O)N(C)C)c1)C12CC3CC(CC(C3)C1)C2,> 35.9 µM (inactive)
3,O=C(Nc1c(-c2ccccc2)[nH][nH]c1=O)c1cccc(C(F)(F)F)c1,> 35.8 µM (inactive)
4,COc1cc2c(cc1OC)C(C)N(C(=O)c1cccc([N+](=O)[O-])c1)CC2 (stereo not given),inactive
5,C=C1C(=O)[C@@]23C[C@H]4[C@@H]5[C@@]6(C)CCC[C@@]57[C@@H]2[C@@H](O)[C@@H]1C[C@H]3[C@H]7N4C6,3.71 µM
6,COC(=O)c1cccc2c1-c1ccccc1/C2=N/O,9.71 µM
7,CC(=O)N1CCN(c2ccc(Oc3ncnc4sccc34)cc2)CC1,inactive
8,O=C(CCl)N(c1ccccc1)C1CCS(=O)(=O)C1 (stereo not given),2.84 µM
9,OCCN(CCO)CC(O)COc1ccc(C23CC4CC(CC(C4)C2)C3)cc1 (stereo not given),> 35.9 µM (inactive)
10,Cc1ccc(S(=O)(=O)N2[C@@H](c3ccc(C(C)(C)C)cc3)C(C(=O)O)=CC[C@H]2c2ccc(Cl)cc2)cc1,inactive
11,Nc1ccn(C2OC(CO)C(O)C2O)c(=O)n1 (stereo not given),> 11.9 µM (inactive)
12,Cc1ccc(OCC(=O)c2cc(C)n(-c3ccccc3)c2C)c([N+](=O)[O-])n1,inactive
13,COc1ccc2ncn(-c3ccccc3)c2c1,8.16 µM
14,CCOc1cccc(/C=N/NC(=O)c2cccnc2)c1O,> 12 µM (inactive)
15,Cc1sc2ncnc(N3CCC(C(=O)N(C)CC(=O)Nc4cccc(F)c4)CC3)c2c1C,> 12 µM (inactive)
16,C=CCNc1ncnc2ccc(Br)cc12,6.79 µM
17,Cn1c(=O)c2[nH]c(COc3ccc(C(C)(C)C)cc3)nc2n(C)c1=O,inactive
18,N#Cc1c(-c2ccccc2)c(C#N)c2nc3ccccc3n2c1N,> 35.9 µM (inactive)
19,Cc1ccc(/C=C2/SC(=S)N(CCCC(=O)Nc3ccc(O)cc3)C2=O)cc1,> 35.9 µM (inactive)
20,C=CCOc1ccc(/C=C2\SC(=S)N(CCC(=O)O)C2=O)cc1,> 35.9 µM (inactive)
21,CCCc1cc(C(=O)N(C)CC(=O)Nc2ccc(OCC)c(OCC)c2)sc1C,> 35.9 µM (inactive)
22,Cc1ccc(NC(=O)C2CCN(c3ncnc4sc(C)c(C)c34)CC2)cc1S(=O)(=O)N(C)C,inactive
23,COc1ccc(-n2cnc3c(sc4nccc(N(C)C)c43)c2=O)cc1,inactive
24,CCn1c(Oc2ccc(F)cc2)nc2c1c(=O)n(C)c(=O)n2C,> 12 µM (inactive)
25,CC(=O)NC(c1cc(Cl)c2cccnc2c1O)C1CC1 (stereo not given),inactive
26,O=C(O)c1ccccc1-c1c2cc(I)c(=O)c(I)c-2oc2c(I)c(O)c(I)cc12,> 35.9 µM (inactive)
27,S=C(Nc1ccccc1)Nc1ccc(OCc2ccc(Cl)cc2Cl)cc1,4.26 µM

row,Compound,IC50
1,O=C1NCCc2c1[nH]c1ccc([N+](=O)[O-])cc21,inactive
2,CCn1c2ccccc2c2cnc(N=CN(C)C)c(C#N)c21,inactive
3,Cc1ccc2occ(/C=N/NC(=O)[C@@H](N)Cc3ccccc3)c(=O)c2c1,8.08 µM
4,O=C(CCn1cnc(-c2ccccc2)c1-c1ccccc1)N/N=C/c1ccccc1O,inactive
5,CC1CC(C)C(=NNC(N)=O)C(C(O)CC2CCC(=O)NC2=O)C1 (stereo not given),8.57 µM
6,CCOC(=O)CSc1cc(-c2ccccc2)nc2ncnn12,> 35.9 µM (inactive)
7,O=C(Nc1ccncc1)c1ccccc1[N+](=O)[O-],9.54 µM
8,COc1ccc(/C=C2/SC(=S)N(CCC(=O)O)C2=O)cc1,> 35.9 µM (inactive)
9,COc1ccc(-n2cnc(N)c2C(=O)c2cccc([N+](=O)[O-])c2)cc1,inactive
10,COc1ccc(Oc2nc3c(c(=O)n(C)c(=O)n3C)n2C)cc1,inactive
11,CCN(C(=O)c1cc(S(=O)(=O)N2CCCCC2)c[nH]1)c1ccc(OC)cc1,inactive
12,CCCCC(=O)Nc1cccn2ncnc12,inactive
13,NC(=S)NN=Cc1nccc2c(N)cccc12,inactive
14,O=C(CCCOc1ccc(Cl)cc1Cl)N/N=C/c1ccccc1O,6.73 µM
15,O=C(Nc1cccc(Cl)c1)Nc1nnc(-c2ccncc2)s1,8 µM
16,O=C(c1ccncc1)N(Cc1cc2ccccc2[nH]c1=O)C1CCCCC1,inactive
17,CCCCC(CC)COCCCN=Cc1c(O)[nH]c(=S)[nH]c1=O (stereo not given),inactive
18,Cc1c(/C(O)=C2/C(=O)C(=O)N(Cc3cccnc3)C2c2ccccn2)cnn1-c1ccccc1 (stereo not given),inactive
19,O=C(Nc1nc(-c2ccccn2)cs1)c1cccc(S(=O)(=O)N2CCOCC2)c1,inactive
20,O=C(CCC1CCCC1)Nc1ccc(C(=O)NCc2cccnc2)cc1,3.87 µM
21,O=[N+]([O-])c1ccc2c(c1)-c1ccccc1C2=NO,inactive
22,Fc1ccc(CSc2nnc(-c3ccncc3)o2)cc1,6.06 µM
23,COc1ccc(Nc2ncnc3ccc(C)cc23)cc1,3.97 µM
24,Cn1nc(C(F)(F)F)c(C#N)c1N1CCN(c2ccc(F)cc2)CC1,9.32 µM
25,Nc1ccn([C@@H]2O[C@H](CO)[C@@H](O)C2O)c(=O)n1 (stereo not given in full),inactive
26,CCN(CC)CCNC(=O)c1ccc(NC(=O)C2CCN(c3ncnc4sc(C)c(C)c34)CC2)cc1,5.4 µM
27,CCc1ccc(/C=C2\SC(=S)N(CCCC(=O)NCCCN3CCOCC3)C2=O)cc1,6.27 µM

row,Compound,IC50
1,CCOc1ccc(/C=C2\SC(=S)N(CCCC(=O)NCCCN3CCOCC3)C2=O)cc1,> 12 µM (inactive)
2,CN(C)C(=O)c1ccc(-c2n[nH]c(=O)c3ccccc23)cc1,inactive
3,COc1ccc2[nH]c(=O)c(CN(CCN3CCCC3)C(=O)Nc3ccccc3Cl)cc2c1,> 35.8 µM (inactive)
4,O=C(CCl)N1N=C(c2cccs2)CC1c1ccco1 (stereo not given),> 35.9 µM (inactive)
5,CC(C)n1c(-c2cccnc2)nc2cnccc21,inactive
6,CCCS(=O)(=O)c1c(S(=O)(=O)CCC)c2c(C)cccn2c1C(=O)N/N=C/c1cc(O)cc(O)c1,inactive
7,O=C(CCCc1nc(-c2ccccc2Cl)no1)NC1CCCC1,inactive
8,CC(=O)NC(c1cc(Cl)c2cccnc2c1O)C(C)C (stereo not given),> 35.9 µM (inactive)
9,COc1ccc(/C=C2\CC/C(=C\c3ccc(OC)c(OC)c3)C2=O)cc1OC,> 35.9 µM (inactive)
10,Cc1nc2c(-c3ccc(F)cc3)cnn2c(N)c1-c1ccccc1,inactive
11,CN(Cc1cnc2nc(N)nc(N)c2n1)c1ccc(C(=O)NC(CCC(=O)O)C(=O)O)c2ccccc12 (stereo not given),> 35.9 µM (inactive)
12,COc1cc(C(=O)N/N=C(\c2ccccc2)c2ccccn2)cc(OC)c1OC,> 11.9 µM (inactive)
13,O=C(O)CN1C(=O)/C(=C\c2ccccc2OCc2ccc(Cl)cc2Cl)SC1=S,inactive
14,CCC(C)(C)n1nnnc1CN1CCC(n2c(C)nc3cc(C(F)(F)F)ccc32)CC1,> 35.9 µM (inactive)
15,CN(C)c1ccc(Nc2ncnc3ccc(Br)cc23)cc1,9.96 µM
16,CN(c1ccc(C(=O)N2CCN(Cc3ccc4c(c3)OCO4)CC2)cc1)S(=O)(=O)c1ccccc1,> 35.9 µM (inactive)
17,O=C(N/N=C(\c1ccccc1)c1ccccn1)c1ccccc1Cl,inactive
18,O=[N+]([O-])c1ccc(N(CCO)CCO)c2c1no[n+]2[O-],inactive
19,CC(=O)C1=C(C)NC2=C(C(=O)CC(C)(C)C2)C1C (stereo not given),inactive
20,COc1ccc(OC)c(/C=C2\NC(=O)NC2=O)c1,7.42 µM
21,Cc1nc2c(-c3ccc(Cl)cc3)c(C)[nH]n2c(=O)c1Cc1ccccc1,9.38 µM
22,COc1ccc2c(=O)cc(-c3ccncc3)oc2c1OC,inactive
23,COc1ccc(Cc2nnc(SCc3ccc([N+](=O)[O-])cc3)o2)cc1,inactive
24,CCc1ccc(-c2nc(CSCC(=O)NCc3ccco3)c(C)o2)cc1,> 35.9 µM (inactive)

# Reference: PubChem BioAssay AID602235 (The Scripps Research Institute Molecular Screening Center, 2012)
